According to US12616685B2, “Concomitant administration of glucocorticoid receptor modulator relacorilant and CYP2C9 substrates” (Corcept Therapeutics Incorporated, priority 2020, dated 2026):

Assays:
[1] = Clinical drug-drug interaction study in healthy volunteers (tolbutamide alone vs with relacorilant); details: for effect of relacorilant co-administration on AUC0-tz and AUCinf / reduction of Cmax on co-administration of relacorilant: 500 mg tolbutamide with 350 mg relacorilant vs tolbutamide alone; for AUC0-tz, Ratio of Geometric LSMs (%) / AUCinf, Ratio of Geometric LSMs (%) / Cmax, Ratio of Geometric LSMs (%): 100*(Test/Reference), Treatment E (with relacorilant) vs Treatment B (tolbutamide alone)
Experimental: An open-label, crossover study was conducted in healthy subjects to determine the effect of relacorilant on the plasma exposure of tolbutamide, a known substrate of CYP2C9. A single 500 mg dose of tolbutamide was administered alone and pharmacokinetic (PK) samples were collected before dosing (0 hour) and at 0.5, 1, 1.5, 2, 2.5, 3, 4, 6, 8, 12, 18, 24, 36, and 48 hours post-dose. Relacorilant (350 mg) was then administered once a day for 10 consecutive days. On the following day, a single 500 mg dose of tolbutamide was administered in combination with relacorilant 350 mg and pharmacokinetic (PK) samples were again collected at pre-dose through 48 hours post-dose at the same timepoints as described above. The plasma concentrations of tolbutamide and its metabolite, 4-hydroxy tolbutamide were evaluated by validated bioanalytical assays on each dosing occasion of tolbutamide.
• ANOVA, analysis of variance; AUCinf, AUC from time 0 extrapolated to infinity; AUC0-tz, AUC from time 0 until the time of the last measurable concentration; Cmax, maximum plasma concentration; CV %, coefficient of variation; LSM, least squares mean. • Treatment B: Single oral dose of 500 mg tolbutamide (Reference). • Treatment E: Single oral dose of 500 mg tolbutamide and 350 mg relacorilant administered on Day 15 followed by oral doses of 350 mg relacorilant administered QD on Days 16 and 17 (Test). • Parameters were ln-transformed prior to analysis. • Geometric Least Square means (LSMs) were calculated by exponentiating the LSMs from the ANOVA. • Ratio of Geometric LSMs=100*(Test/Reference); where Test is Treatment E and Reference is Treatment B.

CYP2C9 = CYP2C9 (Homo sapiens, UniProt P11712); test: biochemical
Chain of CYP2C9 (P11712 whole entry): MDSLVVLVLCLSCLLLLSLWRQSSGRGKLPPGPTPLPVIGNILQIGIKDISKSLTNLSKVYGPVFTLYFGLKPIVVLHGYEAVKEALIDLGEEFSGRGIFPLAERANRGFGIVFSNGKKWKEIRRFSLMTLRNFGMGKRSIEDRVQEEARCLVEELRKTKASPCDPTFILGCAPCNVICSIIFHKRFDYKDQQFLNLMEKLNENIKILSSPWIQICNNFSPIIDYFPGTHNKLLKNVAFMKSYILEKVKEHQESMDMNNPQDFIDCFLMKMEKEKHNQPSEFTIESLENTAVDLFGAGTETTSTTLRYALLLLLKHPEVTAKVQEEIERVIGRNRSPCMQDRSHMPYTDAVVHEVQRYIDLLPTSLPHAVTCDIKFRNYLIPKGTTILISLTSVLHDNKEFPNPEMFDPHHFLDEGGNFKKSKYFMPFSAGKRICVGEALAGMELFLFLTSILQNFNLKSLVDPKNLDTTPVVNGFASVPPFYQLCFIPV
Experimental: Cytochrome P450 (CYP) isoforms CYP1A2, CYP2C9, CYP2C19, CYP2D6, and CYP3A4, heterologously expressed in E. coli, were obtained from Cypex and mixed to produce a 5-CYP mix. A selective and FDA accepted substrate for each isoform was present in the reaction at a concentration around its Km.
The 5-CYP mix and a CYP substrate cocktail were added and the tubes warmed for 3 minutes whilst mixing on a BioShake IQ (37° C., 1500 rpm). NADPH (final concentration 1 mM) was added and the mixture was incubated for 10 minutes. Methanol containing an internal standard (1 μM tolbutamide) was then added to all samples, and these were mixed and placed at −20° C. for ≥1 hour to quench the reaction and allow protein to precipitate.
All samples were centrifuged (2500×g, 20 minutes, 4° C.). The supernatants were transferred to a fresh 96 well plate, compatible with an autosampler. The plate was sealed with a pre-slit silicone mat and the metabolites were analyzed by LC-MS/MS. […]
The final concentration in the assay of the 5-CYP mix was 32.5 pmol/ml for each of the enzymes evaluated (i.e., CYP1A2, CYP2C9, CYP2C19, CYP2D6, and CYP3A4). […]
The metabolites measured were: CYP1A2, 1-hydroxytacrine; CYP2C9, 4′-hydroxy diclofenac; CYP2C19, 4′-hydroxymephenytoin; CYP2D6, hydroxybufuralol; CYP3A4, 1′hydroxymidazolam. […]

[2] = co-administered with CYP2C9 inhibitor sulfaphenazole, human subjects; Perkins et al. 2018; cited from earlier work
[3] = plasma, single oral 500 mg tolbutamide alone, healthy subjects
[4] = plasma, single oral 500 mg tolbutamide with 350 mg relacorilant after once-daily relacorilant, healthy subjects

SMILES | effect of relacorilant co-administration on AUC0-tz and AUCinf [1] | reduction of Cmax on co-administration of relacorilant [1] | AUC0-tz, Ratio of Geometric LSMs (%) [1] | AUCinf, Ratio of Geometric LSMs (%) [1] | Cmax, Ratio of Geometric LSMs (%) [1] | AUC0-tz, Geometric LSM, Reference (Day 2) Treatment B [1, 3] | AUCinf, Geometric LSM, Reference (Day 2) Treatment B [1, 3] | Cmax, Geometric LSM, Reference (Day 2) Treatment B [1, 3] | AUC0-tz, Geometric LSM, Test (Day 15) Treatment E [1, 4] | AUCinf, Geometric LSM, Test (Day 15) Treatment E [1, 4] | Cmax, Geometric LSM, Test (Day 15) Treatment E [1, 4] | IC50 (CYP2C9) | AUC(0-inf) ([1]; human, plasma, po, 500 mg) | AUC(0-t) ([1]; human, plasma, po, 500 mg) | Cmax ([1]; human, plasma, po, 500 mg) | fold increase in plasma level of tolbutamide (AUC) with sulfaphenazole [2]
CCCCNC(=O)NS(=O)(=O)c1ccc(CO)cc1 [4-OH Tolbutamide, 4-hydroxy tolbutamide] | no effect | approximately 37% | 88.80% | 89.91% | 63.49% | 8.619 µg·h/mL | 8.954 µg·h/mL | 0.6043 µg/mL | 7.653 µg·h/mL | 8.051 µg·h/mL | 0.3836 µg/mL | – | – | – | – | –
Cn1cc(S(=O)(=O)N2CCC3=Cc4c(cnn4-c4ccc(F)cc4)C[C@]3(C(=O)c3cc(C(F)(F)F)ccn3)C2)cn1 [Relacorilant, (R)-(1-(4-fluorophenyl)-6-((1-methyl-1H-pyrazol-4-yl)sulfonyl)-4,4a,5,6,7,8-hexahydro-1H-pyrazolo[3,4-g]isoquinolin-4a-yl)(4-(trifluoromethyl)pyridine-2-yl)methanone] | – | – | – | – | – | – | – | – | – | – | – | 2.1 µM | – | – | – | –
CCCCNC(=O)NS(=O)(=O)c1ccc(C)cc1 [Tolbutamide, tolbutamide, reference compound] | no effect | approximately 31% | 89.11% | 89.54% | 69.22% | – | – | – | – | – | – | – | 602 µg·h/mL | 579 µg·h/mL | 42.4 µg/mL | more than 5 fold
